# Experimental data taken from PMC12679585, “Design, synthesis, and characterization of novel 5-ethylsulfonyl-indazole-3-carboxamides as dual VEGFR-2 and EGFR inhibitors: apoptotic antiproliferative and immunomodulatory evaluations” (RSC Advances, 2025).
# What was measured:
# MCF-7 = test: Antiproliferative assay (MTT); format: cell-based; settings: Homo sapiens, MCF7, MCF-7 breast, mean of three experiments ± SD
# From the text: (§1) The MTT assay[53,54] was employed to evaluate the antiproliferative efficacy of new compounds 8a–l against two human cancer cell lines: MCF-7 (breast) and HCT-116 (colorectal carcinoma). Erlotinib was employed as the benchmark. Check Appendix A for additional experimental information.
# (§2) The MTT assay[53,54] was used to evaluate the antiproliferative properties of novel compounds 8a–l against two human cancer cell lines: MCF-7 (breast cancer) and HCT-116 (colorectal carcinoma). Erlotinib was utilized as the reference. […] The provided values represent the means of three experiments ± standard deviation (SD). […]
# (§3) of Ham's F-12 medium/ Dulbecco's modified Eagle's medium (DMEM) (1:1) supplemented with 10% foetal calf serum (GIBCO, UK), 2 mM glutamine, insulin (10 μg/mL), hydrocortisone (500 ng/mL) and epidermal growth factor (20 ng/mL). Trypsin ethylenediamine tetra acetic acid (EDTA) was used to passage the cells after every 2-3 days. 96-well flat-bottomed cell culture plates were used to seed the cells at a density of 10^4 cells mL-1. The medium was aspirated from all the wells of culture plates after 24 h followed by the addition of synthesized compounds (in 200 μL medium to yield a final concentration of 0.1% (v/v) dimethyl sulfoxide) into individual wells of the plates.
# (§4) Four wells were designated to a single compound. The plates were allowed to incubate at 37°C for 96 h. Afterwards, the medium was aspirated and 3-[4,5-dimethylthiazol-2-yl]-2,5-diphenyltetrazolium bromide (MTT) (0.4 mg/mL) in medium was added to each well and subsequently incubated for 3 h. The medium was aspirated and 150 μL dimethyl sulfoxide (DMSO) was added to each well. The plates were vortexed followed by the measurement of absorbance at 540 nm on a microplate reader. […]
# (§5) All cell lines […]
# (§6) were obtained from ATCC (American Type Cell Culture). […]
# (§7) μM), benzamidine HCl (16 μg/mL), NaCl (10 mM),leupeptin (10 μg/mL) and pepstatin (10 μg/mL) at 0°C for 20 min at pH 7.4, followed by centrifugation for 20 min. To eliminate the nonspecifically bound material, a Ni-NTA super flow packed column was (1 picture or pasted object on this page, not shown here)
# HCT-116 = test: Antiproliferative assay (MTT); format: cell-based; settings: Homo sapiens, HCT-116 colorectal, mean of three experiments ± SD
# From the text: as §1, §2, §3, §4, §5, §6, §7
# HCT-116 and MCF-7 = test: Antiproliferative assay, average over the two cell lines; format: cell-based; settings: Homo sapiens; average of HCT-116 and MCF-7; read-out: Average IC50 (GI50)
# From the text: as §1
# The MTT assay[53,54] was used to evaluate the antiproliferative properties of novel compounds 8a–l against two human cancer cell lines: MCF-7 (breast cancer) and HCT-116 (colorectal carcinoma). Erlotinib was utilized as the reference. […] The provided values represent the means of three experiments ± standard deviation (SD).
# [1] = Cell viability assay (MTT) on normal mammary epithelial cells; format: cell-based; settings: human, MCF-10A normal mammary gland epithelial cells, four days
# Method: This test assesses the safety of new compounds 8a–l on normal cell lines. The efficacy of 8a–l was tested on the normal human mammary gland epithelial cell line MCF-10A. MCF-10A cells were incubated with 50 µM of each tested compound for four days. Cell viability was assessed using the MTT assay.[11,48] Appendix A has extra experimental details.
# This assay evaluates the impact of novel compounds 8a–l on normal cell lines to determine their safety, an essential consideration in drug discovery. The efficacy of the examined compounds was evaluated utilizing the normal human mammary gland epithelial cell line MCF-10A. […]
# 4.2. Biological evaluation
# 4.2.1 Cell Viability assay (MTT assay)
# as §3, with “MTT assay was performed to investigate the effect of the synthesized compounds on mammary epithelial cells (MCF-10A). The cells were propagated in medium consisting of Ham's” for “of Ham's”
# as §4
# VEGFR-2 kinase = target: VEGFR-2 kinase; design: method as in PMID 24456902; settings: cited from earlier work
# Caspase-9 = Caspase-9 activation assay in HCT-116 cells
# Caspase-3 = Caspase-3 activation assay in HCT-116 cells; format: cell-based, human
# Method: Appendix A gives more details.
# Additionally, activating caspases is essential for both initiating and terminating the apoptotic process.[64] Caspase-3 is an essential enzyme that cleaves several proteins within cells, leading to apoptotic cell death.[65] […]
# be read immediately after the Stop Solution is added or within one hour if the microwell strips are stored at 2 - 8°C in the dark. Read the absorbance of each microwell on a spectrophotometer using 450 nm as the primary wavelength.
# 4.2.5. Caspase-3 activation assay
# Allow all reagents to reach room temperature before use. Gently mix all liquid reagents prior to use. Determine the number of 8-well strips needed for the assay. Insert these in the frame(s) for current use. Add 100 μl of the Standard Diluent Buffer to the zero standard wells. Well(s) reserved for chromogen blank should be left empty. Add 100 μl of standards and controls or diluted samples to the appropriate microtiter wells. The sample dilution chosen should be optimized for each experimental system. Tap gently on side of plate to mix. Cover wells with plate cover and incubate for 2 hours at room temperature. Thoroughly aspirate or decant solution from wells and discard the liquid, Wash wells 4 times. Pipette 100 μl of Caspase-3 (Active) Detection Antibody solution into each well except the chromogen blank(s). Tap gently on the side of the plate to mix. Cover plate with plate cover and incubate for 1 hour at room temperature.
# Thoroughly aspirate or decant solution from wells and discard the liquid, Wash wells 4 times. Add 100 μl Anti-Rabbit IgG HRP Working Solution to each well except the chromogen blank(s). Prepare the working dilution as described in Preparing IgG HRP.
# Cover wells with the plate cover and incubate for 30 minutes at room temperature.
# Thoroughly aspirate or decant solution from wells and discard the liquid. Wash wells 4 times. Add 100 μl of Stabilized Chromogen to each well. The liquid in the wells will […]
# begin to turn blue. […] The
# Tap side of plate gently to mix.
# Use a curve fitting software to generate […]
# for the dilution in step 3.
# 4.2.6. Caspase-8/9 activation assay
# This lysate was diluted in […]
# EGFR = EGFR (Homo sapiens, UniProt P00533); design: 645–1186; His6 (N); made in house; host or cells: Sf-9 insect cells (baculovirus; vectors pBlueBacHis2B and pFASTBacHTc); method as in PMID 35667253; settings: cited from earlier work
# wild-type EGFR = system: wild-type EGFR; design: method as in PMID 26275028; settings: cited from earlier work
# IL-6 = IL-6 level by qRT-PCR in HCT-116 cells; settings: HCT-116 cells, 24 hours, at IC50 against HCT-116 (8g 24 nM, 8h 23 nM), qRT-PCR
# Method: (§8) The reference molecule was dexamethasone, a drug that uniformly regulates the immune system.
# TNF-α and IL6 a determination
# (§9) determined using of q RT-PCR technique. By using q RTPCR (reference), the amount
# (§10) treated HCT-116 cells was measured (at the IC50 concentrations). Total RNA was
# (§11) accordance with the manufacturer's instructions (RNeasy mini kit, Qiagen, Germany).
# (§12) Following RNA extraction, the Revert Aid First Strand cDNA Synthesis kit (Thermo
# (§13) Scientific, USA) was used to create cDNA. The Rotor-Gene Q real-time PCR thermal
# (§14) cycler was used to amplify target cDNA for apoptosis markers and GAPDH [as a
# (§15) normalization (housekeeping) gene] using one step RT-PCR SYBR® Green kit Master
# (§16) Mix (Bio-Rad Laboratories, USA). Two microliters of cDNA were combined with one
# (§17) microliter of forward primer, one microliter of reverse primer, ten microliters of master
# (§18) mixture, and twenty microliters of nuclease-free water to complete the reaction volume.
# (§19) Every experiment was carried out three times.
# (§20) Quantitative Real Time Reverse-Transcriptase PCR (qRT-PCR) primer sequences
# TNF-α : R 5'- [sequence] -3'.
# IL6 : R 5'- [sequence] -3
# GAPDH : R 5’- [sequence]-3’
# TNF-α = TNF-α level by qRT-PCR in HCT-116 cells; settings: HCT-116 cells, 24 hours, at IC50 against HCT-116 (8g 24 nM, 8h 23 nM), qRT-PCR
# Method: as §8
# TNF-α and IL6 a determination
# as §9, §10, §11, §12, §13, §14, §15, §16, §17, §18, §19, §20
# TNF-α : R 5'- [sequence] -3'.
# IL6 : R 5'- [sequence] -3
# GAPDH : R 5’- [sequence]-3’
# Sequence of EGFR (P00533 669-1210): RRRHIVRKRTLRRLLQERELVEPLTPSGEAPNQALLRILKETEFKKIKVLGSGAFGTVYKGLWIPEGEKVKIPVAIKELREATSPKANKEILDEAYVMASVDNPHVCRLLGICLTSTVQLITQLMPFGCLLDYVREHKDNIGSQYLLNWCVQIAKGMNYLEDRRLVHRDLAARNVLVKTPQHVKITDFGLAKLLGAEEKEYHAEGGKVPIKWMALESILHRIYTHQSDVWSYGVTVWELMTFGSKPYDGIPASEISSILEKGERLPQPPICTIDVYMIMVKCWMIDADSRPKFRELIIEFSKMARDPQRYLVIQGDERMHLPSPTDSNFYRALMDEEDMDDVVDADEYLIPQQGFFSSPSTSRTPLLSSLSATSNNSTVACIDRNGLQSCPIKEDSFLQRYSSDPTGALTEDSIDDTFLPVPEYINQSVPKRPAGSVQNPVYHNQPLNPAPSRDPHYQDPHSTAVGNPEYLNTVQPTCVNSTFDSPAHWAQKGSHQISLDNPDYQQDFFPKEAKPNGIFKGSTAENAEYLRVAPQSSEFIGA
Compound,IC50 (MCF-7),IC50 (HCT-116),IC50 (HCT-116 and MCF-7),"viability at 4 days, 50 µM [1]",also measured
"CCCCCCCNC(=O)NNC(=O)c1n[nH]c2ccc(S(=O)(=O)CC)cc12 [Compound 8c, 2-(5-(Ethylsulfonyl)-1H-indazole-3-carbonyl)-N-heptylhydrazine-1-carboxamide]",34 ± 2 nM,30 ± 2 nM,32 nM,91%,–
"CCS(=O)(=O)c1ccc2[nH]nc(C(=O)NNC(=O)NC3CCC(C)CC3)c2c1 (centres unmarked) [Compound 8f, 2-(5-(Ethylsulfonyl)-1H-indazole-3-carbonyl)-N-(4-methylcyclohexyl)hydrazine-1-carboxamide]",50 ± 4 nM,39 ± 3 nM,45 nM,92%,–
CN(c1ccc2cn(C)nc2c1)c1ccnc(Nc2ccc(OC(F)(F)F)cc2)n1 [Compound XIV],–,–,–,–,IC50 (VEGFR-2 kinase): 12 nM
"CCS(=O)(=O)c1ccc2[nH]nc(C(=O)NNC(=O)NCc3ccccc3)c2c1 [Compound 8j, 2-(5-(Ethylsulfonyl)-1H-indazole-3-carbonyl)-N-(benzyl)hydrazine-1-carboxamide]",36 ± 2 nM,31 ± 2 nM,34 nM,90%,–
"CN[C@@H]1C[C@H]2O[C@@](C)([C@@H]1OC)n1c3ccccc3c3c4c(c5c6ccccc6n2c5c31)C(=O)NC4 [Staurosporine, reference compound]",–,–,–,–,Caspase-9 Conc. (Caspase-9): 20 ± 1 ng/mL; Caspase-3 Conc. (Caspase-3): 465 ± 4 pg/mL
CC(=O)Nc1ccc(/C(N)=N/OC(=O)c2ccc3cn[nH]c3c2)cc1 [Compound XIII],–,–,–,–,IC50 (EGFR): 85 ± 5 nM
"CCS(=O)(=O)c1ccc2[nH]nc(C(=O)NNC(=O)NCCc3ccccc3)c2c1 [Compound 8l, 2-(5-(Ethylsulfonyl)-1H-indazole-3-carbonyl)-N-phenethylhydrazine-1-carboxamide]",46 ± 4 nM,37 ± 3 nM,42 nM,91%,–
"C#Cc1cccc(Nc2ncnc3cc(OCCOC)c(OCCOC)cc23)c1 [Erlotinib, reference compound]",40 ± 3 nM,30 ± 2 nM,35 nM,–,–
"CCCCCCNC(=O)NNC(=O)c1n[nH]c2ccc(S(=O)(=O)CC)cc12 [Compound 8b, 2-(5-(Ethylsulfonyl)-1H-indazole-3-carbonyl)-N-hexylhydrazine-1-carboxamide]",40 ± 3 nM,33 ± 3 nM,37 nM,92%,–
C=CC(=O)Nc1cccc(Oc2nc(Nc3n[nH]c4ccccc34)cc(N3CCN(C)CC3)n2)c1 [Compound XII],–,–,–,–,IC50 (wild-type EGFR): 1700 nM
"C[C@@H]1C[C@H]2[C@@H]3CCC4=CC(=O)C=C[C@]4(C)[C@@]3(F)[C@@H](O)C[C@]2(C)[C@@]1(O)C(=O)CO [Dexamethasone, reference compound]",–,–,–,–,IL-6 (% inhibition) (IL-6): 93%; IL-6 (% inhibition) (IL-6; listed as dexamethasone): 93.2%; TNF-α (% inhibition) (TNF-α): 83%; TNF-α (% inhibition) (TNF-α; listed as dexamethasone): 82.7%
"CCCCCNC(=O)NNC(=O)c1n[nH]c2ccc(S(=O)(=O)CC)cc12 [Compound 8a, 2-(5-(Ethylsulfonyl)-1H-indazole-3-carbonyl)-N-pentylhydrazine-1-carboxamide]",54 ± 4 nM,42 ± 4 nM,48 nM,90%,–
"CCS(=O)(=O)c1ccc2[nH]nc(C(=O)NNC(=O)NC3CCCCC3)c2c1 [Compound 8e, 2-(5-(Ethylsulfonyl)-1H-indazole-3-carbonyl)-N-(cyclohexyl)hydrazine-1-carboxamide]",39 ± 3 nM,31 ± 3 nM,35 nM,91%,–
"CCS(=O)(=O)c1ccc2[nH]nc(C(=O)NNC(=O)NCc3ccc(OC)cc3)c2c1 [Compound 8k, 2-(5-(Ethylsulfonyl)-1H-indazole-3-carbonyl)-N-(4-methoxybenzyl)hydrazine-1-carboxamide]",32 ± 2 nM,30 ± 2 nM,31 nM,92%,–
"CCCCCCCCNC(=O)NNC(=O)c1n[nH]c2ccc(S(=O)(=O)CC)cc12 [Compound 8d, 2-(5-(Ethylsulfonyl)-1H-indazole-3-carbonyl)-N-octylhydrazine-1-carboxamide]",31 ± 2 nM,28 ± 1 nM,30 nM,90%,–
"CCS(=O)(=O)c1ccc2[nH]nc(C(=O)NNC(=O)Nc3ccc(F)cc3)c2c1 [Compound 8i, 2-(5-(Ethylsulfonyl)-1H-indazole-3-carbonyl)-N-(4-fluorophenyl)hydrazine-1-carboxamide]",44 ± 4 nM,36 ± 3 nM,40 nM,91%,–
